From ChEMBL document CHEMBL1156411, “New axane and oppositane sesquiterpenes from Teclea nobilis” (J Nat Prod, 2002)
The source made the active and inactive calls.

What was measured:
Format in all cases: functional, organism-based
Cryptococcus neoformans = test: Antimicrobial activity against Cryptococcus neoformans
Staphylococcus aureus [1] = test: Antimicrobial activity against methicillin-resistant Staphylococcus aureus
Staphylococcus aureus [2] = test: Antimicrobial activity against Staphylococcus aureus
Candida albicans = test: Antimicrobial activity against Candida albicans
Plasmodium falciparum [3] = test: Antiplasmodial activity against Plasmodium falciparum D6
Plasmodium falciparum [4] = test: Antiplasmodial activity against Plasmodium falciparum W2

Measured: Activity

C=C1CC[C@H](O)[C@@]2(C)CC[C@H](C(=O)C(C)C)[C@@H]12
inactive: Cryptococcus neoformans | Staphylococcus aureus [1] | Staphylococcus aureus [2] | Candida albicans | Plasmodium falciparum [3] | Plasmodium falciparum [4]

C=C1CC[C@@H](O)[C@]2(C)CC[C@H](C(=O)C(C)C)[C@@H]12
inactive: Cryptococcus neoformans | Staphylococcus aureus [1] | Staphylococcus aureus [2] | Candida albicans | Plasmodium falciparum [3] | Plasmodium falciparum [4]
